Measurements as given in patent US11266642B2, “Small molecule inhibitors of HLA-DR3 binding for treating autoimmune thyroiditis” (ICAHN SCHOOL OF MEDICINE AT MOUNT SINAI, priority 2015, dated 2022).
Like-named read-outs stand apart in the source and are kept apart here.

Columns and labels:
Interferon (IFN gamma) = assay: Cytokine production by immunized mice splenocytes (Milliplex/Luminex); format: cell-based; conditions: Mus musculus, Splenocyte, 1 μM compound, 48 hours
Description: Immunized mice splenocytes were incubated with 1 μM compound Ia together with human thryroglobulin (40 μg/mL) or Tg.2098 (20 μg/mL) to assess the inhibition of cytokines production by compound Ia. […] Milliplex mouse cytokines/chemokine magnetic panel (Catalog no. MCYTOMAG-70K, EMD Millipore Corporation, Billerica, Mass.) was used to assay the cytokines. Splenocytes were plated at 2×10^6 cells per well in 500 uL of medium (RPMI/10% FBS). Supernatants were collected 48 hours after stimulation with hTg or peptides and stored at −80° C. until the assay was performed. To begin the assay, the 96-well plate supplied in the kit was washed with the wash buffer supplied and the plate was shaken for 10 min at room temperature. Standards and quality controls were added, followed by the samples. The pre-mixed beads (IFN gamma, IL-2, IL-4, IL-10) were sonicated and vortexed, and then added to the wells. After shaking the plate overnight at 4° C., the plate was washed twice with wash buffer. Detection antibodies were added for 1 h at room temperature, and Streptavidin-Phycoerythrin was added for 30 min at room temperature. The plate was washed twice and sheath fluid was added to resuspend the beads for 5 min before reading in Luminex 200 with xPONENT software (Luminex, Austin, Tex.) […]

HLA-DRβ1-Arg74 = molecular target: T1, HLA-DRβ1-Arg74 (Homo sapiens, UniProt P01903+P01911, A100K/A102G/A103R/A169T/F55Y/I96L/K41T/L162R/M171V/P40S/Q125H/Q178H/Q39Y/R42S/S66N/T106N/W38E/Y61H); assay: In Vitro Arg74 Blocking Test (DELFIA immunoassay, APO peptide binding); conditions: 10 μM biotinylated APO; 48 h at 37° C.; serial dilution 0.2 to 0.0125 mM; read-out: approximate IC50, inhibition of APO binding to HLA-DRβ1-Arg74
T1 construct: extracellular portion of the DRB1*0301 β chain fused to the coiled coil region; coiled coil region of the basic leucine zipper domain of JunB; TEV protease cutting site (internal)
T1 sequence (P01903 26-216 limits assumed, other chains not shown): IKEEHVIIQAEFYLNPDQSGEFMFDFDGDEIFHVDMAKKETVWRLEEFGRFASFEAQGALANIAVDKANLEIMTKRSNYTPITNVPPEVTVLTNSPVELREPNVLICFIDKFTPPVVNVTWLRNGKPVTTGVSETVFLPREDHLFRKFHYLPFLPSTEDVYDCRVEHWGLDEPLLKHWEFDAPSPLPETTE
From the text: HLA-DRβ1-Arg74 protein (containing arginine at position 74 on the β chain) was produced using the baculovirus system. We designed 2 constructs for both the α and β chains of HLA-DR. The β-chain construct contained the extracellular portion of the DRB1*0301 β chain fused to the coiled coil region of the basic Leucine zipper domain of JunB, and the α chain construct contained the extracellular portion of the DR α chain fused to the coiled coil region to the basic Leucine zipper domain of Fos. A TEV protease cutting site was introduced in each chain to allow removal of the dimerization motif. The JunB and Fos dimerization motifs allowed the protein to dimerize and form the final HLA-DRβ1-Arg74 protein. […]
Test compounds were dissolved in 100% DMSO and tested for their ability to bind to the HLA-DRβ1-Arg74 pocket and block it from binding the peptide using an immunoassay we developed for this purpose, which will be referred to as the “In Vitro Arg74 Blocking Test”. […] Time-resolved fluorescence was measured using the BMG reader (BMG Labtech, Cary, N.C.). […] Percent inhibition was calculated by the following formula: 100−100×[HLA-DRβ1-Arg74-APO-small molecule/HLA-DRβ1-Arg74-APO (no small molecule)])
To gauge the potency of the small molecules we determined the percent inhibition at decreasing concentrations of test molecules. […]

- IC50 (HLA-DRβ1-Arg74): ~80 µM
SMILES: COc1ccc2cc1Oc1ccc(cc1)C[C@H]1c3c(cc4c(c3Oc3cc5c(cc3OC)CCN(C)[C@@H]5C2)OCO4)CCN1C [Compound Ia, cepharanthine]
- inhibition at 1 µM (Interferon (IFN gamma); Tg.2098 20 μg/mL, p<0.0001, read-out: Interferon inhibition, Tg.2098 stimulation): 48.8%
- inhibition at 1 µM (Interferon (IFN gamma); hTg 40 μg/mL, p=0.002, read-out: Interferon inhibition, hTg stimulation): 38.7%
